Consider 15 molecules from PubChem BioAssay (NCI).

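Results reflect a 48-hour exposure of cells in 96-well plates to compound at five concentrations. GI50 is the concentration that inhibits growth by half. TGI: total growth inhibition.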

Among the test systems are SW-620 colon; SN12C renal; SK-MEL-28 melanoma; M14 melanoma; LOX IMVI melanoma; NCI-H23 lung; UACC-62 melanoma; MALME-3M melanoma; MDA-MB-435; NCI/ADR-RES ovarian.
Holding throughout (test): growth of human tumour cells (NCI), 48 h

As for `O=C1C2=C(c3ccccc31)C(c1ccccc1Cl)N1C(=O)CSC1=N2` (stereo not given), the TGI in the experiment with SW-620 colon, in the experiment on SN12C renal, in the experiment with SK-MEL-28 melanoma, with M14 melanoma, in the experiment on LOX IMVI melanoma and in the experiment with NCI-H23 lung was greater than 100 µM in each case. The TGI with UACC-62 melanoma and with MALME-3M melanoma was greater than 100 µM in each case.
`COc1cc(Br)c(CC2=NCCc3cc(OC)c(OC)cc32)cc1OC`: the TGI was greater than 100 µM with SW-620 colon; greater than 100 µM in the experiment with SN12C renal; greater than 100 µM with SK-MEL-28 melanoma; 65.8 µM in the experiment on M14 melanoma; greater than 100 µM in the experiment with LOX IMVI melanoma; greater than 100 µM with NCI-H23 lung. In addition, the TGI in the experiment on UACC-62 melanoma and in the experiment with MALME-3M melanoma was greater than 100 µM in each case.
`COc1cc2c(cc1C)n(O)c(C)c(C(=O)C/C(=N/NC(=O)C[N+](C)(C)C)C(=O)Nc1cccc(Cl)c1C)[n+]2=O`: the TGI in the experiment with SW-620 colon, in the experiment with SN12C renal, in the experiment on SK-MEL-28 melanoma, in the experiment on M14 melanoma, in the experiment on LOX IMVI melanoma and in the experiment on NCI-H23 lung was greater than 100 µM each time. The TGI with UACC-62 melanoma and in the experiment on MALME-3M melanoma was greater than 100 µM throughout.
As to `COc1ccccc1/C=C\c1cc(OC)c(OC)c(OC)c1`, the TGI with SW-620 colon, in the experiment on SN12C renal, in the experiment with SK-MEL-28 melanoma, in the experiment with M14 melanoma, in the experiment on LOX IMVI melanoma and with UACC-62 melanoma was greater than 100 µM in each case. In the experiment on MALME-3M melanoma, this molecule yielded a TGI greater than 100 µM.
Turning to `Cc1ccc(Nc2ccc(Nc3ccc(C)cc3)c3c2C(=O)c2c(O)ccc(O)c2C3=O)cc1`, the TGI in the experiment on SW-620 colon, in the experiment with SN12C renal, in the experiment with SK-MEL-28 melanoma, in the experiment with M14 melanoma, in the experiment on LOX IMVI melanoma and in the experiment with NCI-H23 lung was greater than 100 µM each time. The TGI with UACC-62 melanoma and in the experiment with MALME-3M melanoma was greater than 100 µM throughout.
Turning to `CCOC(=O)C12CC1(C(=O)OCC)C1CCC2C1` (stereo not given), the TGI with SW-620 colon, in the experiment on SN12C renal, in the experiment on SK-MEL-28 melanoma, in the experiment on M14 melanoma, in the experiment on LOX IMVI melanoma and in the experiment with NCI-H23 lung was greater than 100 µM in each case. Also, the TGI with UACC-62 melanoma and in the experiment on MALME-3M melanoma was greater than 100 µM each time.
Turning to `COc1ccc(C(=O)C=C2NCCN2)cc1`, the TGI in the experiment on SW-620 colon, with SN12C renal, in the experiment with SK-MEL-28 melanoma, with M14 melanoma, with LOX IMVI melanoma and with NCI-H23 lung was greater than 100 µM each time. The TGI in the experiment on UACC-62 melanoma and in the experiment with MALME-3M melanoma was greater than 100 µM each time.
Turning to `Cc1ccc(NC(=O)C(=O)Cc2nc3ccccc3o2)c(C)c1`, the TGI in the experiment with SW-620 colon, in the experiment on SN12C renal, in the experiment with SK-MEL-28 melanoma, in the experiment on M14 melanoma, in the experiment with LOX IMVI melanoma and in the experiment on NCI-H23 lung was greater than 100 µM each time. Also, the TGI in the experiment with UACC-62 melanoma and in the experiment on MALME-3M melanoma was greater than 100 µM in each case.
For the molecule `Cc1ccc(N2C(=O)/C(=C3\Sc4c(nc(C)[nH]c4=O)N3c3ccccc3)SC2=S)cc1`, the TGI in the experiment with SW-620 colon was greater than 100 µM; in the experiment on SN12C renal, greater than 100 µM; in the experiment on SK-MEL-28 melanoma, greater than 100 µM; in the experiment with M14 melanoma, greater than 100 µM; in the experiment on LOX IMVI melanoma, 70.7 µM; in the experiment with NCI-H23 lung, 56.7 µM. In addition, the TGI in the experiment on UACC-62 melanoma and in the experiment with MALME-3M melanoma was greater than 100 µM each time.
For `CCOC(=O)C(C)(C)Oc1ccc2c(-c3ccc(Cl)cc3)cc(=O)oc2c1`, the TGI with SW-620 colon, with SN12C renal, with SK-MEL-28 melanoma, in the experiment with M14 melanoma, with LOX IMVI melanoma and in the experiment with NCI-H23 lung was greater than 100 µM throughout. Further, the TGI with UACC-62 melanoma and with MALME-3M melanoma was greater than 100 µM in each case.
With `CC[C@@H]1OC2(C)CC(S(=O)(=O)c3ccccc3)CC1O2` (stereo not given in full), the TGI with SW-620 colon, with SN12C renal, with SK-MEL-28 melanoma, in the experiment with M14 melanoma, with NCI-H23 lung and in the experiment on UACC-62 melanoma was greater than 100 µM in each case. The molecule further came in with a TGI in the experiment on MALME-3M melanoma greater than 100 µM.
As for `O=C1C(c2ccccc2)=C(c2ccccc2)C(c2ccc(CCCCCCc3ccc(C4=C(c5ccccc5)C(=O)C(c5ccccc5)=C4c4ccccc4)cc3)cc2)=C1c1ccccc1`, the TGI in the experiment on SW-620 colon, with SN12C renal, with SK-MEL-28 melanoma, with M14 melanoma, in the experiment on NCI-H23 lung and in the experiment on UACC-62 melanoma was greater than 100 µM throughout. Also, the TGI in the experiment on MALME-3M melanoma was greater than 100 µM.
In the case of `COC1=C(OC)CCC(/C(C#N)=C/c2ccc(OC)c(OC)c2)=C1`, the TGI with SW-620 colon, in the experiment with SN12C renal, in the experiment on SK-MEL-28 melanoma, with M14 melanoma, in the experiment on LOX IMVI melanoma and in the experiment with NCI-H23 lung was greater than 100 µM in each case. In addition, in the experiment with UACC-62 melanoma, the TGI is greater than 100 µM.
Turning to `O=C(/C=C/c1cccc(Cl)c1)c1ccc(Cl)cc1Cl`, the GI50 is 2360 nM in the experiment with SW-620 colon; 14.7 µM in the experiment with SN12C renal; 8.31 µM in the experiment with MDA-MB-435; 9.69 µM in the experiment with SK-MEL-28 melanoma; 14 µM in the experiment with M14 melanoma; 1880 nM in the experiment with LOX IMVI melanoma. The GI50 with NCI-H23 lung is 10.2 µM; with UACC-62 melanoma, 11.1 µM; in the experiment on NCI/ADR-RES ovarian it was 11.3 µM. Besides, the TGI was 38.7 µM in the experiment with SW-620 colon; 32 µM in the experiment with SN12C renal; 16.8 µM in the experiment with MDA-MB-435; 26.6 µM in the experiment with SK-MEL-28 melanoma; 31 µM with M14 melanoma; 4.69 µM in the experiment with LOX IMVI melanoma. The results for the TGI in the experiment with NCI-H23 lung, in the experiment with UACC-62 melanoma and in the experiment on NCI/ADR-RES ovarian were 19.3 µM, 29 µM and 21.6 µM, respectively.
With `COc1ccc(C2S/C(=C\c3ccc(OC)cc3OC)C(=O)N2NC(=O)Cc2ccccc2)cc1` (stereo not given), the TGI with SW-620 colon, with SN12C renal, in the experiment with M14 melanoma, with LOX IMVI melanoma, in the experiment on NCI-H23 lung and in the experiment on UACC-62 melanoma was greater than 100 µM throughout. This molecule yielded a TGI with MALME-3M melanoma greater than 100 µM.
